Data on six molecules can be found in article PMC7734625, “Stabilization Strategies for Linear Minigastrin Analogues: Further Improvements via the Inclusion of Proline into the Peptide Sequence” (Journal of Medicinal Chemistry, 2020).

As a reminder, the logD is lipophilicity at a set pH, counting ionised and neutral species.

Data set [1] in a line: log D, octanol/PBS distribution. The format is physicochemical. The following applies: 111In-labeled peptide.
Data set [2] in a line: protein binding in human serum (Sephadex G-50 size-exclusion chromatography). The data set is classed as in vitro ADME. How it is done: The protein binding in human serum (500 pmol/mL, n = 2) was assessed by Sephadex G-50 size-exclusion chromatography (GE Healthcare Illustra, Little Chalfont, U.K.) for up to 24 h.
Data set [3] in a line: in vivo stability studies in BALB/c mice. The settings on record: i.v. How it is done:
Metabolic studies evaluating the stability of the radioligands were carried out in 7- to 8-week-old female BALB/c mice. With the ^111In-labeled peptide derivatives, the studies were performed for the time point of 10 min p.i. (n = 2). With the ^177Lu-labeled peptide derivatives, additional studies were also carried out for the time point of 30 min and 60 min p.i. (n = 1 for each time point). To allow monitoring of the metabolites by analytical HPLC, the mice were injected with a higher amount of radioactivity (6–9 MBq indium-111, 30–45 MBq lutetium-177) corresponding to ∼1 nmol total peptide intravenously through a lateral tail vein. At different time points, the mice were euthanized by cervical dislocation and urine and a blood sample was collected. Liver and kidneys were excised and homogenized in 20 mM HEPES buffer pH 7.3. The amount of intact radiopeptide and the formation of metabolites was analyzed by analytical HPLC. Prior to injection into the HPLC system, all samples were treated as described for human serum and rat organ homogenate samples.

A short description of data set [4]: biodistribution in A431-CCK2R/A431-mock xenografted BALB/c nude mice. The format is in vivo. The settings on record: female, athymic BALB/c nude, mouse, iv, 20 pmol, total radioactivity, 20 pmol, 4 h p.i. As for the experimental part:
(§1) Biodistribution studies evaluating the tumor uptake of the radiolabeled peptides were performed in 7- to 9-week-old female athymic BALB/c nude mice (Charles River, Sulzfeld, Germany). For the induction of tumor xenografts, 150 μL of DMEM containing 2 × 10^6 A431-CCK2R and A431-mock cells were injected subcutaneously in the right and left flank of each mouse, respectively. And 10–14 days after injection, tumors reached a medium weight of ∼0.25 g. The mice were divided into groups of four and injected intravenously via a lateral tail vein with 0.2 MBq of ^111In-labeled compound (0.02 nmol) and 0.7 and 1.5 MBq of the ^177Lu-labeled compound (0.02 and 0.15 nmol). At 4 and 12 h p.i., the mice were sacrificed and the tumors and other tissues (blood, lung, heart, muscle, spleen, intestine, liver, kidneys, stomach, and pancreas) were removed, weighed, and their radioactivity measured in the γ counter together with the rest of the body. Initial biodistribution studies were performed with the three ^177Lu-labeled CCK2R-targeting ligands at an injected peptide amount of 20 pmol for the time point of 4 h p.i. From these studies, two peptide analogues were selected to further characterize the biodistribution profile also at a later time point of 12 h p.i. and at a higher injected peptide amount of 150 pmol. Additional animal studies were performed for the ^111In-labeled conjugates. Percentage of injected activity per gram tissue (%IA/g), tumor-to-organ activity ratios, as well as whole body activity were calculated for each sample and statistical analysis using independent two-population t-test (significance level p < 0.05) was performed using Origin software. For the comparison of more than two groups, data were analyzed using one-way analysis of variance (ANOVA) Holm–Bonferroni-adjusted post hoc analysis (significance level p < 0.05) using Microsoft Excel 2010 software (Microsoft Excel 2010, Microsoft Corporation, WA).

Data set [5] has as its system A431-CCK2R/A431-mock xenografts. The description is as above. The format is in vivo. How it is done:
as §1

[6] abbreviates: 4 h after incubation, read-out: protein binding (%) 4 h (converted).
Setting [7] is: 24 h after incubation, read-out: protein binding (%) 24 h (converted).

Like-named read-outs stand apart in the source and are kept apart here. Non-standard residues stand in square brackets, D forms with d. Residues, ends and D or L forms follow the SMILES beside them. *: point of attachment. DOTA = O=C(O)CN1CCN(CC(=O)O)CCN(CC(=O)*)CCN(CC(=O)O)CC1; 1Nal = N[C@@H](Cc1cccc2ccccc12)C(=O)O; NMeNle = CCCC[C@H](NC)C(=O)O

In turn, `CCCC[C@@H](C(=O)N[C@@H](CC(=O)O)C(=O)N[C@@H](Cc1cccc2ccccc12)C(N)=O)N(C)C(=O)[C@H](Cc1c[nH]c2ccccc12)NC(=O)[C@@H]1CCCN1C(=O)[C@H](Cc1ccc(O)cc1)NC(=O)[C@H](C)NC(=O)[C@@H](CCC(=O)O)NC(=O)CN1CCN(CC(=O)O)CCN(CC(=O)O)CCN(CC(=O)O)CC1` [[^111In]In-3, metal not drawn] ({DOTA}-[dE]AYPW[NMeNle]D[1Nal]-NH2) registered a logD in data set [1] of -2.05. The fraction unbound in data set [2] (setting [6]) was 0.588; in data set [2] (setting [7]), 0.54.

Take `CCCC[C@@H](C(=O)N[C@@H](CC(=O)O)C(=O)N[C@@H](Cc1cccc2ccccc12)C(N)=O)N(C)C(=O)[C@H](Cc1c[nH]c2ccccc12)NC(=O)CNC(=O)[C@@H]1CCCN1C(=O)[C@H](Cc1ccc(O)cc1)NC(=O)[C@@H](CCC(=O)O)NC(=O)CN1CCN(CC(=O)O)CCN(CC(=O)O)CCN(CC(=O)O)CC1` [[^111In]In-2] [metal not drawn] ({DOTA}-[dE]YPGW[NMeNle]D[1Nal]-NH2): in data set [3] (10 min p.i.), the “intact radiopeptide in blood” value worked out at 82.3 ± 1.8%, the “intact radiopeptide in kidneys” value was determined as 30.2 ± 0.5%, the “intact radiopeptide in liver” value was 73.9 ± 1.2% and the “intact radiopeptide in urine” value is 30.3 ± 5.9%.

Consider `CCCC[C@@H](C(=O)N[C@@H](CC(=O)O)C(=O)N[C@@H](Cc1cccc2ccccc12)C(N)=O)N(C)C(=O)[C@H](Cc1c[nH]c2ccccc12)NC(=O)[C@@H]1CCCN1C(=O)[C@H](Cc1ccc(O)cc1)NC(=O)[C@H](C)NC(=O)[C@@H](CCC(=O)O)NC(=O)CN1CCN(CC(=O)O)CCN(CC(=O)O)CCN(CC(=O)O)CC1` [[^177Lu]Lu-3, metal not drawn] ({DOTA}-[dE]AYPW[NMeNle]D[1Nal]-NH2), for which, in data set [3] (60 min p.i., n = 1), the “intact radiopeptide in blood” value was determined as 63.5%. Also, the “intact radiopeptide in kidneys” value in data set [3] (60 min p.i., n = 1) was 7.2%. Also, the “intact radiopeptide in liver” value in data set [3] (60 min p.i., n = 1) turned out to be 35.6%. The “intact radiopeptide in urine” value in data set [3] (60 min p.i., n = 1) was determined as 20.6%. For the same molecule, the tissue to tissue ratio at 4 h worked out at 709 ± 470 in data set [4] (A431-CCK2R xenograft tumor / blood, read-out: tumor-to-blood ratio); 4.52 ± 1.41 in data set [4] (A431-CCK2R xenograft tumor / kidney, read-out: tumor-to-kidney ratio); 58 ± 19.2 in data set [4] (A431-CCK2R xenograft tumor / liver, read-out: tumor-to-liver ratio); 6.49 ± 1.32 in data set [4] (A431-CCK2R xenograft tumor / stomach, read-out: tumor-to-stomach ratio). Further, the tissue uptake at 4 h in data set [4] (A431-CCK2R xenograft tumor, read-out: tumor uptake in A431-CCK2R xenografts) was 28.6 ± 7.95 %ID/g; in data set [4] (A431-mock xenograft tumor, read-out: uptake in A431-mock xenografts), 0.25 ± 0.06 %ID/g; in data set [4] (blood, read-out: uptake in blood) it was 0.06 ± 0.03 %ID/g; in data set [4] (heart, read-out: uptake in heart), 0.08 ± 0.01 %ID/g; in data set [4] (intestine, read-out: uptake in intestine), 0.95 ± 0.23 %ID/g; in data set [4] (kidney, read-out: uptake in kidney) it was 6.61 ± 1.75 %ID/g. In addition, the tissue uptake at 4 h in data set [4] (liver, read-out: uptake in liver) stood at 0.52 ± 0.12 %ID/g; in data set [4] (lung, read-out: uptake in lung), 0.17 ± 0.05 %ID/g; in data set [4] (muscle, read-out: uptake in muscle) it was 0.09 ± 0.05 %ID/g; in data set [4] (pancreas, read-out: uptake in pancreas) it was 1.78 ± 0.72 %ID/g; in data set [4] (spleen, read-out: uptake in spleen), 0.19 ± 0.02 %ID/g; in data set [4] (stomach, read-out: uptake in stomach), 4.73 ± 2.29 %ID/g.

For `CCCC[C@@H](C(=O)N[C@@H](CC(=O)O)C(=O)N[C@@H](Cc1cccc2ccccc12)C(N)=O)N(C)C(=O)[C@H](Cc1c[nH]c2ccccc12)NC(=O)CNC(=O)[C@@H]1CCCN1C(=O)[C@H](Cc1ccc(O)cc1)NC(=O)[C@@H](CCC(=O)O)NC(=O)CN1CCN(CC(=O)O)CCN(CC(=O)O)CCN(CC(=O)O)CC1` [[^177Lu]Lu-2] [metal not drawn] ({DOTA}-[dE]YPGW[NMeNle]D[1Nal]-NH2), in data set [3] (60 min p.i., n = 1), the “intact radiopeptide in blood” value came to 79.1%, the “intact radiopeptide in kidneys” value worked out at 11.0%, the “intact radiopeptide in liver” value was determined as 74.5% and the “intact radiopeptide in urine” value is reported as 18.8%. Moreover, in data set [5] (150 pmol, 4 h p.i.), the “tumor uptake in A431-CCK2R xenografts” value was 15.26 ± 6.84 % IA/g. The molecule also showed a tumor retention in data set [5] (A431-CCK2R xenografts, 12 h p.i. relative to 4 h p.i., 20 pmol) of over 60%. Moreover, the “reduction of tumor uptake in A431-CCK2R xenografts” value in data set [5] (injected peptide amount increased to 150 pmol vs 20 pmol, 4 h p.i.) is listed as “about 50%”.

In turn, `CCCC[C@@H](C(=O)N[C@@H](CC(=O)O)C(=O)N[C@@H](Cc1cccc2ccccc12)C(N)=O)N(C)C(=O)[C@H](Cc1c[nH]c2ccccc12)NC(=O)CNC(=O)[C@@H]1CCCN1C(=O)[C@H](Cc1ccc(O)cc1)NC(=O)[C@@H](CCC(=O)O)NC(=O)CN1CCN(CC(=O)O)CCN(CC(=O)O)CCN(CC(=O)O)CC1` [[^111In]In-2, metal not drawn] ({DOTA}-[dE]YPGW[NMeNle]D[1Nal]-NH2) gave a logD in data set [1] of -1.75. For the same molecule, the values for the fraction unbound in data set [2] (setting [6]) and in data set [2] (setting [7]) were 0.432 and 0.466, respectively.

As for `CCCC[C@@H](C(=O)N[C@@H](CC(=O)O)C(=O)N[C@@H](Cc1cccc2ccccc12)C(N)=O)N(C)C(=O)[C@H](Cc1c[nH]c2ccccc12)NC(=O)CNC(=O)[C@H](Cc1ccc(O)cc1)NC(=O)[C@@H]1CCCN1C(=O)[C@@H](CCC(=O)O)NC(=O)CN1CCN(CC(=O)O)CCN(CC(=O)O)CCN(CC(=O)O)CC1` [[^111In]In-1, metal not drawn] ({DOTA}-[dE]PYGW[NMeNle]D[1Nal]-NH2), the logD in data set [1] is -2.03. Moreover, the fraction unbound in data set [2] (setting [6]) is 0.555; in data set [2] (setting [7]) it was 0.472.
